Data set [1] in a line: Half life in mouse liver S9 fraction. Type of data set: ADME, subcellular.
Data set [2] is described as follows: Half life in mouse liver microsomes. Type of data set: ADME, Microsome.

As a reminder, the half-life is how long it takes for the measured level to halve.

`O=C1N=C(NCC2CCN(CCO)CC2)S/C1=C\c1csc(-c2ccccc2O)n1`: the half-life in data set [1] is more than 120 min.

Molecule `CC(C)(CO)CNC1=NC(=O)/C(=C/c2csc(-c3cccc(F)c3O)n2)S1` gave a half-life in data set [1] of 44.4 min.

Molecule `CN1CCC(CNC2=NC(=O)/C(=C/c3ccc(-c4cccc(Cl)c4)o3)S2)CC1` yielded a half-life in data set [2] of more than 120 min.

Consider `O=C1N=C(NCC2(CO)CC2)S/C1=C\c1csc(-c2ccccc2O)n1`, for which the half-life in data set [1] stood at 28.9 min.

Turning to `CC(C)(CO)CNC1=NC(=O)/C(=C/c2csc(-c3cccc(OC(F)(F)F)c3)n2)S1`, the half-life in data set [2] is more than 120 min.

`O=C1NC(=S)S/C1=C\c1csc(-c2ccc(C(F)(F)F)cc2)n1` yielded a half-life in data set [2] of 49 min.

Consider `CN(c1cccc(-c2nc(/C=C3\SC(NCC(C)(C)CO)=NC3=O)cs2)c1)S(C)(=O)=O`, for which, in data set [2], the half-life amounted to 5.68 min.

`CN1CCC(CNC2=NC(=O)/C(=C/c3csc(-c4ccc(C(F)(F)F)cc4)n3)S2)CC1`: the half-life in data set [2] was more than 120 min.

Take `N=C1NC(=O)/C(=C/c2csc(-c3ccc(C(F)(F)F)cc3)n2)S1`: the half-life in data set [2] is more than 100 min.

In the case of `O=C1N=C(NCC2(CO)CC2)S/C1=C\c1csc(-c2ccc(OC(F)(F)F)cc2)n1`, in data set [2], the half-life was more than 120 min.

In data set [2], `CN(C)S(=O)(=O)Nc1cccc(-c2nc(/C=C3\SC(NCC(C)(C)CO)=NC3=O)cs2)c1` showed a half-life of 7.56 min.

`O=C1N=C(NCC2(CO)CCC2)S/C1=C\c1csc(-c2ccc(OC(F)(F)F)cc2)n1` gave a half-life in data set [2] of more than 120 min.

Take `CC(C)(CO)CNC1=NC(=O)/C(=C/c2csc(-c3ccc(F)cc3O)n2)S1`: the half-life in data set [1] is 45.6 min.

`CN1CCC(CNC2=NC(=O)/C(=C/c3csc(-c4cccc(N(C)S(C)(=O)=O)c4)n3)S2)CC1` registered a half-life in data set [2] of 27.5 min.

In the case of `O=C1N=C(N[C@H]2CCC[C@@H]2CO)S/C1=C\c1csc(-c2cccc(F)c2O)n1` (stereo in doubt), in data set [1], the half-life is 22.1 min.

In data set [2], `CN(C)CCNC1=NC(=O)/C(=C/c2csc(-c3ccc(OC(F)(F)F)cc3)n2)S1` yielded a half-life of more than 120 min.

For `CC(C)(CO)CNC1=NC(=O)/C(=C/c2csc(-c3ccc(OC(F)(F)F)cc3)n2)S1`, the half-life in data set [2] is more than 120 min.

For the molecule `O=C1N=C(N[C@H]2CC[C@H](O)CC2)S/C1=C\c1csc(-c2ccc(OC(F)(F)F)cc2)n1`, the half-life in data set [2] was 781 min.

In turn, `CC(C)(CO)CNC1=NC(=O)/C(=C/c2csc(-c3cccc(OC(F)(F)F)c3O)n2)S1` gave a half-life in data set [1] of 84.2 min.

The record behind these values is ChEMBL document CHEMBL4680285, “Aminothiazolones as potent, selective and cell active inhibitors of the PIM kinase family” (Bioorg Med Chem, 2020).
